Results: US4379148A, “Analgesic and anti-inflammatory composition” (priority 1981, dated 1983)
Entries after “also recorded” stand apart in the source; their conditions may differ. Read-outs that look alike come from different tables or passages of the source.

Assays:
[1] = Analgesic Test by Phenylquinone Writhing Method; format: in vivo, Male ddY mice; conditions: for ED50: Mus musculus, po, read-out: ED50 (dose that reduced the number of writhes of the control group by 50%), drug alone; for combined analgesic effect with emorfazone: combination with emorfazone, in words; for ED50 dose obtained experimentally, with emorfazone 10 / theoretical additive ED50 dose, with emorfazone 10 / ED50 dose obtained experimentally, with emorfazone 20 / theoretical additive ED50 dose, with emorfazone 20: p.o.; for ED50 dose obtained experimentally, with emorfazone 10: combined with emorfazone 10 mg/kg (1/4 of its ED50); for theoretical additive ED50 dose, with emorfazone 10: combined with emorfazone 10 mg/kg; for ED50 dose obtained experimentally, with emorfazone 20: combined with emorfazone 20 mg/kg (1/2 of its ED50); for theoretical additive ED50 dose, with emorfazone 20: combined with emorfazone 20 mg/kg
Experimental: Male ddY mice (18-22 g) fasted for 18 hours were divided into test groups and a control group of 7 animals per group. […] The number of writhes was counted for 20 minutes after the p-phenylquinone injection.

[2] = Analgesic Test by Randall-Selitto Method (carrageenin inflammatory pain); format: in vivo, Male Wistar rats; conditions: for ED50: Rattus norvegicus, po, read-out: ED50 (dose that increased the mean pain threshold of the control group by 50%), drug alone; for ED50 dose obtained experimentally, with emorfazone 4.5 / theoretical additive ED50 dose, with emorfazone 4.5 / ED50 dose obtained experimentally, with emorfazone 9 / theoretical additive ED50 dose, with emorfazone 9: p.o.; for ED50 dose obtained experimentally, with emorfazone 4.5 / theoretical additive ED50 dose, with emorfazone 4.5: combined with emorfazone 4.5 mg/kg; for ED50 dose obtained experimentally, with emorfazone 9 / theoretical additive ED50 dose, with emorfazone 9: combined with emorfazone 9 mg/kg
Experimental: Male Wistar rats (120-140 g) fasted for 18 hours were divided into test groups and a control group of 5 animals per group. […] The pain threshold was measured after the carrageenin injection at hourly intervals for 3 hours with an analgesy meter (Ugo Basile, Milan).

[3] = Anti-inflammatory Test by Whittle's Method (acetic acid, dye in peritoneal exudate); format: in vivo, Male ddY mice
Experimental: Male ddY mice (18-22 g) fasted for 18 hours were divided into test groups and a control group of 7 or 8 animals each. […] Ten minutes later, 10 ml/kg of 0.7% acetic acid dissolved in physiological saline was injected intraperitoneally into all animals and 20 minutes thereafter the animals were sacrificed. The amount of the dye in the peritoneal exudate was determined at 590 nm by using a spectrophotometer (Hitachi Instrument Co.). The ED30 was defined as the dose which decreased the amount of dye of the control group by 30%, and was determined graphically.

[4] = p.o., combined with emorfazone 240 mg/kg
in vivo = conditions: mouse, po
[5] = in words; for inhibitory effect in combination with emorfazone: combination with 100 mg/kg of emorfazone
Experimental: Female Sprague-Dawley rats (180-220 g) were used. […] On day 0 of the test, the adjuvant containing 0.6 mg of Mycobacterium butylicum (Difco) in 0.1 ml of liquid paraffin was injected into the plantar surface of the right hind paw. The test drugs were administered orally once a day for 15 days. The severity of inflammation of the 4 paws and the tail of each rat was evaluated visually at day 30 and scored by a point system. The grading for each lesion was on a 0 to 3 scale with 0 indicating absence of inflammation and 3 indicating maximum inflammation.

[6] = system: biosynthesis of prostaglandin; assay: inhibition of the biosynthesis of prostaglandin; format: biochemical; conditions: in words
[7] = Mus musculus, po; read-out: ED30 (dose which decreased the amount of dye of the control group by 30%), drug alone
[8] = p.o.; combined with emorfazone 28.8 mg/kg
[9] = p.o.; combined with emorfazone 28.8 mg/kg; theoretical additive dose
[10] = p.o.; combined with emorfazone 86 mg/kg
[11] = p.o.; combined with emorfazone 86 mg/kg; theoretical additive dose
[12] = LD50 dose obtained experimentally, with emorfazone 240, p.o., combined with emorfazone 240 mg/kg

CC(=O)Oc1ccccc1C(=O)O [Acetylsalicylic acid, acetylsalicylic acid]
ED50 [1]: 155 mg/kg
combined analgesic effect with emorfazone [1]: for the most part a synergistic response
ED50 dose obtained experimentally, with emorfazone 10 [1]: 115 mg/kg
theoretical additive ED50 dose, with emorfazone 10 [1]: 116.3 mg/kg
ED50 dose obtained experimentally, with emorfazone 20 [1]: 40 mg/kg
theoretical additive ED50 dose, with emorfazone 20 [1]: 77.5 mg/kg
ED50 [2]: 340 mg/kg
ED50 dose obtained experimentally, with emorfazone 4.5 [2]: 240 mg/kg
theoretical additive ED50 dose, with emorfazone 4.5 [2]: 255 mg/kg
ED50 dose obtained experimentally, with emorfazone 9 [2]: 70 mg/kg
theoretical additive ED50 dose, with emorfazone 9 [2]: 170 mg/kg
ED30 [3, 7]: 225 mg/kg
ED30 dose obtained experimentally, with emorfazone 28.8 [3, 8]: 160 mg/kg
theoretical additive ED30 dose, with emorfazone 28.8 [3, 9]: 168.8 mg/kg
ED30 dose obtained experimentally, with emorfazone 86 [3, 10]: 110 mg/kg
theoretical additive ED30 dose, with emorfazone 86 [3, 11]: 112.5 mg/kg
theoretical additive LD50 dose, with emorfazone 240 [4]: 945 mg/kg
LD50 at 168 h (in vivo): 1260 mg/kg
LD50 at 168 h (in vivo; [12]): 1000 mg/kg
inhibitory effect in combination with emorfazone [5]: not essentially affected

CCOc1c(N2CCOCC2)cnn(C)c1=O [Emorfazone, 4-ethoxy-2-methyl-5-morpholino-3(2H)-pyridazinone]
ED50 [1]: 40 mg/kg
ED50 [2]: 18 mg/kg
ED30 [3, 7]: 115 mg/kg
inhibition of the biosynthesis of prostaglandin (emorfazone) [6]: does not inhibit the biosynthesis of prostaglandin
inhibitory effect of emorfazone alone ([5]; 100 mg/kg, used alone): did not show any significant effect when used alone

CC(C(=O)O)c1ccc(-c2ccccc2)c(F)c1 (stereo not shown) [Flurbiprofen]
ED50 [1]: 2 mg/kg
combined analgesic effect with emorfazone [1]: for the most part a synergistic response
ED50 dose obtained experimentally, with emorfazone 10 [1]: 6.2 mg/kg
theoretical additive ED50 dose, with emorfazone 10 [1]: 8 mg/kg
ED50 dose obtained experimentally, with emorfazone 20 [1]: 0.8 mg/kg
theoretical additive ED50 dose, with emorfazone 20 [1]: 1 mg/kg
ED50 [2]: 22 mg/kg
ED50 dose obtained experimentally, with emorfazone 4.5 [2]: 15 mg/kg
theoretical additive ED50 dose, with emorfazone 4.5 [2]: 16.5 mg/kg
theoretical additive ED50 dose, with emorfazone 9 [2]: 11 mg/kg
ED30 ([3]; Mus musculus, po, read-out: ED30 (dose which decreased the amount of dye of the control group by 30%), drug alone): 4 mg/kg
ED30 dose obtained experimentally, with emorfazone 28.8 [3, 8]: 2.8 mg/kg
theoretical additive ED30 dose, with emorfazone 28.8 [3, 9]: 3.0 mg/kg
ED30 dose obtained experimentally, with emorfazone 86 [3, 10]: 1.9 mg/kg
theoretical additive ED30 dose, with emorfazone 86 [3, 11]: 2 mg/kg
theoretical additive LD50 dose, with emorfazone 240 [4]: 157.5 mg/kg
LD50 at 168 h (in vivo): 210 mg/kg
LD50 at 168 h (in vivo; [12]): 155 mg/kg
inhibitory effect in combination with emorfazone [5]: significantly potentiated

CC(C)Cc1ccc(C(C)C(=O)O)cc1 (stereo not shown) [Ibuprofen]
ED50 [1]: 13.5 mg/kg
combined analgesic effect with emorfazone [1]: for the most part a synergistic response
ED50 dose obtained experimentally, with emorfazone 10 [1]: 8 mg/kg
theoretical additive ED50 dose, with emorfazone 10 [1]: 10.1 mg/kg
ED50 dose obtained experimentally, with emorfazone 20 [1]: 3 mg/kg
theoretical additive ED50 dose, with emorfazone 20 [1]: 6.8 mg/kg
ED50 [2]: 120 mg/kg
ED50 dose obtained experimentally, with emorfazone 4.5 [2]: 10 mg/kg
theoretical additive ED50 dose, with emorfazone 4.5 [2]: 90 mg/kg
ED50 dose obtained experimentally, with emorfazone 9 [2]: 8 mg/kg
theoretical additive ED50 dose, with emorfazone 9 [2]: 60 mg/kg
ED30 [3, 7]: 76 mg/kg
ED30 dose obtained experimentally, with emorfazone 28.8 [3, 8]: 56 mg/kg
theoretical additive ED30 dose, with emorfazone 28.8 [3, 9]: 57 mg/kg
ED30 dose obtained experimentally, with emorfazone 86 [3, 10]: 37 mg/kg
theoretical additive ED30 dose, with emorfazone 86 [3, 11]: 38 mg/kg
theoretical additive LD50 dose, with emorfazone 240 [4]: 862.5 mg/kg
inhibitory effect in combination with emorfazone [5]: significantly potentiated

COc1ccc2c(c1)c(CC(=O)O)c(C)n2C(=O)c1ccc(Cl)cc1 [Indomethacin]
ED50 [1]: 0.52 mg/kg
combined analgesic effect with emorfazone [1]: for the most part a synergistic response
ED50 dose obtained experimentally, with emorfazone 10 [1]: 0.33 mg/kg
theoretical additive ED50 dose, with emorfazone 10 [1]: 0.39 mg/kg
ED50 dose obtained experimentally, with emorfazone 20 [1]: 0.18 mg/kg
theoretical additive ED50 dose, with emorfazone 20 [1]: 0.26 mg/kg
ED50 [2]: 6.8 mg/kg
ED50 dose obtained experimentally, with emorfazone 4.5 [2]: 0.8 mg/kg
theoretical additive ED50 dose, with emorfazone 4.5 [2]: 5.1 mg/kg
ED50 dose obtained experimentally, with emorfazone 9 [2]: 0.3 mg/kg
theoretical additive ED50 dose, with emorfazone 9 [2]: 3.4 mg/kg
ED30 [3, 7]: 2.2 mg/kg
ED30 dose obtained experimentally, with emorfazone 28.8 [3, 8]: 1.6 mg/kg
theoretical additive ED30 dose, with emorfazone 28.8 [3, 9]: 1.65 mg/kg
ED30 dose obtained experimentally, with emorfazone 86 [3, 10]: 1 mg/kg
theoretical additive ED30 dose, with emorfazone 86 [3, 11]: 1.1 mg/kg
theoretical additive LD50 dose, with emorfazone 240 [4]: 8.5 mg/kg
LD50 at 168 h (in vivo): 11.3 mg/kg
LD50 at 168 h (in vivo; [12]): 13 mg/kg
inhibitory effect in combination with emorfazone [5]: significantly potentiated

CC(C(=O)O)c1cccc(C(=O)c2ccccc2)c1 (stereo not shown) [Ketoprofen]
ED50 [1]: 0.5 mg/kg
combined analgesic effect with emorfazone [1]: for the most part a synergistic response
ED50 dose obtained experimentally, with emorfazone 10 [1]: 0.37 mg/kg
theoretical additive ED50 dose, with emorfazone 10 [1]: 0.38 mg/kg
ED50 dose obtained experimentally, with emorfazone 20 [1]: 0.23 mg/kg
theoretical additive ED50 dose, with emorfazone 20 [1]: 0.25 mg/kg
ED50 [2]: 6 mg/kg
ED50 dose obtained experimentally, with emorfazone 4.5 [2]: 3 mg/kg
theoretical additive ED50 dose, with emorfazone 4.5 [2]: 4.5 mg/kg
ED50 dose obtained experimentally, with emorfazone 9 [2]: 1 mg/kg
theoretical additive ED50 dose, with emorfazone 9 [2]: 3 mg/kg
ED30 [3, 7]: 3.2 mg/kg
ED30 dose obtained experimentally, with emorfazone 28.8 [3, 8]: 2.2 mg/kg
theoretical additive ED30 dose, with emorfazone 28.8 [3, 9]: 2.4 mg/kg
ED30 dose obtained experimentally, with emorfazone 86 [3, 10]: 1.3 mg/kg
theoretical additive ED30 dose, with emorfazone 86 [3, 11]: 1.6 mg/kg
LD50 at 168 h (in vivo): 305 mg/kg
LD50 at 168 h (in vivo; [12]): 380 mg/kg
inhibitory effect in combination with emorfazone [5]: significantly potentiated

Cc1cccc(Nc2ccccc2C(=O)O)c1C [Mefenamic acid]
ED50 [1]: 36 mg/kg
combined analgesic effect with emorfazone [1]: for the most part a synergistic response
ED50 dose obtained experimentally, with emorfazone 10 [1]: 21 mg/kg
theoretical additive ED50 dose, with emorfazone 10 [1]: 27 mg/kg
ED50 dose obtained experimentally, with emorfazone 20 [1]: 13 mg/kg
theoretical additive ED50 dose, with emorfazone 20 [1]: 18 mg/kg
ED50 [2]: 120 mg/kg
ED50 dose obtained experimentally, with emorfazone 4.5 [2]: 58 mg/kg
theoretical additive ED50 dose, with emorfazone 4.5 [2]: 90 mg/kg
ED50 dose obtained experimentally, with emorfazone 9 [2]: 20 mg/kg
theoretical additive ED50 dose, with emorfazone 9 [2]: 60 mg/kg
ED30 [3, 7]: 82 mg/kg
ED30 dose obtained experimentally, with emorfazone 28.8 [3, 8]: 60 mg/kg
theoretical additive ED30 dose, with emorfazone 28.8 [3, 9]: 61.5 mg/kg
ED30 dose obtained experimentally, with emorfazone 86 [3, 10]: 41 mg/kg
theoretical additive ED30 dose, with emorfazone 86 [3, 11]: 41 mg/kg
theoretical additive LD50 dose, with emorfazone 240 [4]: 892.5 mg/kg
inhibitory effect in combination with emorfazone [5]: significantly potentiated

COc1ccc2cc([C@H](C)C(=O)O)ccc2c1 [Naproxen]
ED50 [1]: 9 mg/kg
combined analgesic effect with emorfazone [1]: for the most part a synergistic response
ED50 dose obtained experimentally, with emorfazone 10 [1]: 6.2 mg/kg
theoretical additive ED50 dose, with emorfazone 10 [1]: 6.3 mg/kg
ED50 dose obtained experimentally, with emorfazone 20 [1]: 4.1 mg/kg
theoretical additive ED50 dose, with emorfazone 20 [1]: 4.5 mg/kg
ED50 [2]: 240 mg/kg
ED50 dose obtained experimentally, with emorfazone 4.5 [2]: 160 mg/kg
theoretical additive ED50 dose, with emorfazone 4.5 [2]: 180 mg/kg
ED50 dose obtained experimentally, with emorfazone 9 [2]: 60 mg/kg
theoretical additive ED50 dose, with emorfazone 9 [2]: 120 mg/kg
ED30 [3, 7]: 12 mg/kg
ED30 dose obtained experimentally, with emorfazone 28.8 [3, 8]: 8.5 mg/kg
theoretical additive ED30 dose, with emorfazone 28.8 [3, 9]: 9 mg/kg
ED30 dose obtained experimentally, with emorfazone 86 [3, 10]: 5.8 mg/kg
theoretical additive ED30 dose, with emorfazone 86 [3, 11]: 6 mg/kg
inhibitory effect in combination with emorfazone [5]: significantly potentiated

CCCCC1C(=O)N(c2ccccc2)N(c2ccccc2)C1=O [Phenylbutazone]
ED50 [1]: 66 mg/kg
combined analgesic effect with emorfazone [1]: potentiated by the emorfazone; also recorded: for the most part a synergistic response
ED50 dose obtained experimentally, with emorfazone 10 [1]: 32 mg/kg
theoretical additive ED50 dose, with emorfazone 10 [1]: 49.5 mg/kg
ED50 dose obtained experimentally, with emorfazone 20 [1]: 16 mg/kg
theoretical additive ED50 dose, with emorfazone 20 [1]: 33 mg/kg
ED50 [2]: 125 mg/kg
ED50 dose obtained experimentally, with emorfazone 4.5 [2]: 22 mg/kg
theoretical additive ED50 dose, with emorfazone 4.5 [2]: 93.8 mg/kg
ED50 dose obtained experimentally, with emorfazone 9 [2]: 19 mg/kg
theoretical additive ED50 dose, with emorfazone 9 [2]: 62.5 mg/kg
ED30 [3, 7]: 175 mg/kg
ED30 dose obtained experimentally, with emorfazone 28.8 [3, 8]: 130 mg/kg
theoretical additive ED30 dose, with emorfazone 28.8 [3, 9]: 131.3 mg/kg
ED30 dose obtained experimentally, with emorfazone 86 [3, 10]: 86 mg/kg
theoretical additive ED30 dose, with emorfazone 86 [3, 11]: 87.5 mg/kg
theoretical additive LD50 dose, with emorfazone 240 [4]: 427.5 mg/kg
inhibitory effect in combination with emorfazone [5]: not essentially affected
